# Measured values: ChEMBL document CHEMBL5291721, “A preclinical secondary pharmacology resource illuminates target-adverse drug reaction associations of marketed drugs” (Nat Commun, 2023)
# Tests used:
# [1] = target: T1, Thromboxane A2 receptor (Homo sapiens, UniProt P21731)
# T1 sequence (P21731 whole entry): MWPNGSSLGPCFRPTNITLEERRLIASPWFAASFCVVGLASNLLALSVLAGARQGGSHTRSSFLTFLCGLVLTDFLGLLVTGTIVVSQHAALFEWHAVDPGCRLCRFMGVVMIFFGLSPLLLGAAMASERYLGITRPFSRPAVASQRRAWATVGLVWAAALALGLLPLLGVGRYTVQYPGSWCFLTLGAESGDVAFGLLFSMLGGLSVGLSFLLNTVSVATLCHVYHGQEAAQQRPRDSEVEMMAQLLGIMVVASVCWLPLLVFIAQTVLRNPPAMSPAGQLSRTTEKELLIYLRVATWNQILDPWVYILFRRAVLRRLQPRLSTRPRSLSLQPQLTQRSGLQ
# [2] = target: D(3) dopamine receptor (Homo sapiens, UniProt P35462)
# [3] = target: Acetylcholinesterase (Homo sapiens, UniProt P22303); type: functional
# [4] = target: Voltage-gated inwardly rectifying potassium channel KCNH2 (Homo sapiens, UniProt Q12809); type: functional; conditions: read-out: AC50
# [5] = target: T2, Amine oxidase [flavin-containing] A (Homo sapiens, UniProt P21397); type: functional
# T2 sequence (P21397 whole entry): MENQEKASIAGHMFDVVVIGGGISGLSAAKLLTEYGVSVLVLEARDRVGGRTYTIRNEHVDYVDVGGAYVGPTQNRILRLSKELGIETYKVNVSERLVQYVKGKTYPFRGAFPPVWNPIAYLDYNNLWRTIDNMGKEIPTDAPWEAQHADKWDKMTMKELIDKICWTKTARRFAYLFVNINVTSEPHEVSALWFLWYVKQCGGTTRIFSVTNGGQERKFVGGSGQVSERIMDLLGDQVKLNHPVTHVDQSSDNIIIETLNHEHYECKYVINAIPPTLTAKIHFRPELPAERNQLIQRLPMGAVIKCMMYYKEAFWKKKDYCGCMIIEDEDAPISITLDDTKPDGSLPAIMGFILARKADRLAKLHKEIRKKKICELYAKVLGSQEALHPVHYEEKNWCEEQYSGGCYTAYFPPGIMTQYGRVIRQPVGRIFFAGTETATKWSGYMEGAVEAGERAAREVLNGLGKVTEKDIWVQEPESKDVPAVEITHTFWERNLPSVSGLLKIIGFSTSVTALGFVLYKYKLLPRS
# [6] = target: T3, Alpha-1A adrenergic receptor (Homo sapiens, UniProt P35348); type: functional, cell-based
# T3 sequence (P35348 whole entry): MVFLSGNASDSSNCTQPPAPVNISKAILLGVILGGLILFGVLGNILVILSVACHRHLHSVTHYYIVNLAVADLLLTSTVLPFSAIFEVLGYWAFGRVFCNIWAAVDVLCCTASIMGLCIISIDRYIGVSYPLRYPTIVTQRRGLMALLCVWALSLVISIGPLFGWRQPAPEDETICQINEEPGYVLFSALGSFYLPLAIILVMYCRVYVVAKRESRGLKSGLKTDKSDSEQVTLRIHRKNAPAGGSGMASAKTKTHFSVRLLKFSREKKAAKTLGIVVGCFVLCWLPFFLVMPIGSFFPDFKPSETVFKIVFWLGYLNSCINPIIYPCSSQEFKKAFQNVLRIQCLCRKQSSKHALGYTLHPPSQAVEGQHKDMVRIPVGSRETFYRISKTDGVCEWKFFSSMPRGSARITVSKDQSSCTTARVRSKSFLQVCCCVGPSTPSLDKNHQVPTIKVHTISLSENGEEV
# [7] = target: T4, Alpha-2A adrenergic receptor (Homo sapiens, UniProt P08913)
# T4 sequence (P08913 whole entry): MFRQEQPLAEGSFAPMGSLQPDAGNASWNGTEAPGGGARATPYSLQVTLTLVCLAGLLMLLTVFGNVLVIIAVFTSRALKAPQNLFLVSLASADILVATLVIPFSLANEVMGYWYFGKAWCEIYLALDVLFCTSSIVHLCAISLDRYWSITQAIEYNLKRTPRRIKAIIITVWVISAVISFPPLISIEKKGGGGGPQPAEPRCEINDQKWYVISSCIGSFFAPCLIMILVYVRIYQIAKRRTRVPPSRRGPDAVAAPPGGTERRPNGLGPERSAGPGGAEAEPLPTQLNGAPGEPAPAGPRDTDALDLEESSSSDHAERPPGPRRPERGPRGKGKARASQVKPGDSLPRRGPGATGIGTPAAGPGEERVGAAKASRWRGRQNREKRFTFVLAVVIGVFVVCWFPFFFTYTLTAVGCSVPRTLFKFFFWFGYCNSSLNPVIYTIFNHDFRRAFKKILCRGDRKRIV
# [8] = target: T5, Muscarinic acetylcholine receptor M2 (Homo sapiens, UniProt P08172)
# T5 sequence (P08172 whole entry): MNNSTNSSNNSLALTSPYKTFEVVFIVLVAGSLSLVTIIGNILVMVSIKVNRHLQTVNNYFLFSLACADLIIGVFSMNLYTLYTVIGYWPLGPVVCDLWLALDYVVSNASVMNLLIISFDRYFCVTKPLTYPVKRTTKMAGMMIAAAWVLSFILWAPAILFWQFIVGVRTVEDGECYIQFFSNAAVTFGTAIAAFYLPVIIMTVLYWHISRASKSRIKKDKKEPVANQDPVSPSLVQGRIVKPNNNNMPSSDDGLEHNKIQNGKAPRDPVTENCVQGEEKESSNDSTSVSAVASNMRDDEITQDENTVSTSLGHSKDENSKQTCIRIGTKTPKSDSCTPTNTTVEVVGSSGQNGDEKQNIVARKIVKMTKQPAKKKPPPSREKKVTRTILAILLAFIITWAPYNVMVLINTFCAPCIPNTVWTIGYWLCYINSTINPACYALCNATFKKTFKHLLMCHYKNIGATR
# [9] = target: Sodium-dependent dopamine transporter (Homo sapiens, UniProt Q01959)
# [10] = target: Histamine H3 receptor (Homo sapiens, UniProt Q9Y5N1)
# [11] = target: Mu-type opioid receptor (Homo sapiens, UniProt P35372)
# [12] = target: T3, Alpha-1A adrenergic receptor; type: functional, cell-based; remark: listed apart in the source
# [13] = target: Sodium-dependent noradrenaline transporter (Homo sapiens, UniProt P23975)
# [14] = target: 5-hydroxytryptamine receptor 2B (Homo sapiens, UniProt P41595); type: functional, cell-based
# [15] = target: D(1A) dopamine receptor (Homo sapiens, UniProt P21728)
# [16] = target: T6, 5-hydroxytryptamine receptor 1A (Homo sapiens, UniProt P08908)
# T6 sequence (P08908 whole entry): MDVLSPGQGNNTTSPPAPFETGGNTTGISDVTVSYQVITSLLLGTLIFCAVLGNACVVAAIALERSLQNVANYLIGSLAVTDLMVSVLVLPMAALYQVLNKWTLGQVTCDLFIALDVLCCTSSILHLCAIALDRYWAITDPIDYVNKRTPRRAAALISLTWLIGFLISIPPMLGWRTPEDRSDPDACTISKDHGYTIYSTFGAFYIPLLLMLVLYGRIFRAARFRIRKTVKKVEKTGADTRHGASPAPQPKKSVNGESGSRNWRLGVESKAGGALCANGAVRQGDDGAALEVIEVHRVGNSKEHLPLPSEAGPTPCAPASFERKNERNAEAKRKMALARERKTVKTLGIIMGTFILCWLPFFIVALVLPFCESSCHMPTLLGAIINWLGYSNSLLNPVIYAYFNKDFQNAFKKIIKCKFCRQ
# [17] = target: Gamma-aminobutyric acid receptor subunit alpha-1/alpha-2/beta-2/gamma-2 (Homo sapiens, UniProt P14867+P18507+P47869+P47870); type: protein-complex assay
# [18] = target: T7, Adenosine receptor A3 (Homo sapiens, UniProt P0DMS8)
# T7 sequence (P0DMS8 whole entry): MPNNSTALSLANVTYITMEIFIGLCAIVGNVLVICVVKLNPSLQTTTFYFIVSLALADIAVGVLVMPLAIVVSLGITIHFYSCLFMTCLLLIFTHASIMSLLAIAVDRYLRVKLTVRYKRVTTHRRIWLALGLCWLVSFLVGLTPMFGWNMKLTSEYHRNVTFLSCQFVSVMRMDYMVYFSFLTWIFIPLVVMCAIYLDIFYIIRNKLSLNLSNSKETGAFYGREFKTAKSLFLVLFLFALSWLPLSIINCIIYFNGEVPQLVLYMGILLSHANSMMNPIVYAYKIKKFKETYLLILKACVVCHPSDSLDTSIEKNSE
# Also: assay procedure not described here.
# Acetylcholinesterase, sequence (P22303 whole entry): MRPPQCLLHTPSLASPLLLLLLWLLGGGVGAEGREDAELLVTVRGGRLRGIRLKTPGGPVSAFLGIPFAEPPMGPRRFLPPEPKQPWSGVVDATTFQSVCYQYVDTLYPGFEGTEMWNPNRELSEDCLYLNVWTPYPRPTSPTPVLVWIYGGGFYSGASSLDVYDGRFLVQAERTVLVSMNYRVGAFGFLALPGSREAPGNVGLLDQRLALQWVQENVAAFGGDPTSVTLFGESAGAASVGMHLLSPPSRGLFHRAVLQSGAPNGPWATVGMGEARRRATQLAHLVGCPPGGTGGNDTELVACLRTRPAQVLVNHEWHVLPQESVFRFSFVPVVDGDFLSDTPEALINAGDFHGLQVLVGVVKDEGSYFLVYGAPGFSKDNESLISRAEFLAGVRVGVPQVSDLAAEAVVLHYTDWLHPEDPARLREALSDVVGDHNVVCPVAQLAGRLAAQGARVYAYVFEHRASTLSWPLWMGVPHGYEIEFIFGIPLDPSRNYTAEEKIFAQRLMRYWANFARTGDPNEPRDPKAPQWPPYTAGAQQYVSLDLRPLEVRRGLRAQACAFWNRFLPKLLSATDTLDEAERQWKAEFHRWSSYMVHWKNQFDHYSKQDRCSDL
# D(3) dopamine receptor, sequence (P35462 whole entry): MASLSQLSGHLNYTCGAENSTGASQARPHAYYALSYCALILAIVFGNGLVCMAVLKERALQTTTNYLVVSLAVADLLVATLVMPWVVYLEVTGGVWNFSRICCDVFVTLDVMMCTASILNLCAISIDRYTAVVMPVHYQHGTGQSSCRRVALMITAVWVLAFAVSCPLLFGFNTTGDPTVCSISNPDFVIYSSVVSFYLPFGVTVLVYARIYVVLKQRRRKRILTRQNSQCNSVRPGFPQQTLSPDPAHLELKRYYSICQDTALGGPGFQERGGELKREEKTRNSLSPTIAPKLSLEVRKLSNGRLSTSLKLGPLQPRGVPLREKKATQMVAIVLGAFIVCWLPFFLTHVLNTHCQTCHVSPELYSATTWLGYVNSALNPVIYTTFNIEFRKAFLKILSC
# Voltage-gated inwardly rectifying potassium channel KCNH2, sequence (Q12809 whole entry): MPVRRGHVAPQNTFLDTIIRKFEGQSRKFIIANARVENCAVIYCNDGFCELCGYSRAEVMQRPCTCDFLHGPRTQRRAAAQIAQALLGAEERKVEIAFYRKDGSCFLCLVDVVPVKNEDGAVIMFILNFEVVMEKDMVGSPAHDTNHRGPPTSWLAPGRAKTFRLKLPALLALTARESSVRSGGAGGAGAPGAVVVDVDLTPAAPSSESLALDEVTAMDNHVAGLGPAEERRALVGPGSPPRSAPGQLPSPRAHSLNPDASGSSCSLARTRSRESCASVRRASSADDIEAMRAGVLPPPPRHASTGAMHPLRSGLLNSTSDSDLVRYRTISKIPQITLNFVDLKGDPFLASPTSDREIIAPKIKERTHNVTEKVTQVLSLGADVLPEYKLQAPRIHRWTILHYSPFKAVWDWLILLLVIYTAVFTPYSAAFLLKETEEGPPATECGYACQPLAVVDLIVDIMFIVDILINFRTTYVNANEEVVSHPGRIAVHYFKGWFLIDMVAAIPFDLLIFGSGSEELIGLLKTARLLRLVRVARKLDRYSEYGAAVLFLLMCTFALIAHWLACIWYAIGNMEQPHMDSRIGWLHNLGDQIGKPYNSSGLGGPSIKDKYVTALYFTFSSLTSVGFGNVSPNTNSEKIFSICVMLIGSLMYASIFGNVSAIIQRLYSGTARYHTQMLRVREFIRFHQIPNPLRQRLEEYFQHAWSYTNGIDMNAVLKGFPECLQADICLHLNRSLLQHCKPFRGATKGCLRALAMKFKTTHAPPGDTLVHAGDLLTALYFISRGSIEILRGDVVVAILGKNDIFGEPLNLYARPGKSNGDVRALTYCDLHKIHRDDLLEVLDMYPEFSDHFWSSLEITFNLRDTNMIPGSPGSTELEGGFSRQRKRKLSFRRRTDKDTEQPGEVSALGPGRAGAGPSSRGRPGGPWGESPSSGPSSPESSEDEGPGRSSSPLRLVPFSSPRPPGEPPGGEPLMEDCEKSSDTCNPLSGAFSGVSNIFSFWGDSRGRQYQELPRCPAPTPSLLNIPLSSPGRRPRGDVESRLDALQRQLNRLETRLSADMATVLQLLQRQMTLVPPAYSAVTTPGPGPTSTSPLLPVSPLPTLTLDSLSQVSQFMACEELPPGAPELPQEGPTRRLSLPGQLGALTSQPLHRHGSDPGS
# D(1A) dopamine receptor, sequence (P21728 whole entry): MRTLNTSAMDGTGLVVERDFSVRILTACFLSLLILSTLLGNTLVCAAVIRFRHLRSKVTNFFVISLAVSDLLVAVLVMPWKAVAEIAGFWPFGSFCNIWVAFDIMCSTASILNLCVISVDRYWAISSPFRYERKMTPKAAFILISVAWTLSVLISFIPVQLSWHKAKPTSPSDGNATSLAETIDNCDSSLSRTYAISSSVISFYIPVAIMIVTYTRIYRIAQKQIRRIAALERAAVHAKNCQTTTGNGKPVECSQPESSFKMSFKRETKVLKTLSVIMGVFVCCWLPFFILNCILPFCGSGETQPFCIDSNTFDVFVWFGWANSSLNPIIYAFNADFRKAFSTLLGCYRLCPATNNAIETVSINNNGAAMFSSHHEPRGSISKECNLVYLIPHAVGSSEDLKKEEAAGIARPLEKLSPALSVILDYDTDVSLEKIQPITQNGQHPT
# Gamma-aminobutyric acid receptor subunit alpha-1/alpha-2/beta-2/gamma-2, sequence (P14867 whole entry): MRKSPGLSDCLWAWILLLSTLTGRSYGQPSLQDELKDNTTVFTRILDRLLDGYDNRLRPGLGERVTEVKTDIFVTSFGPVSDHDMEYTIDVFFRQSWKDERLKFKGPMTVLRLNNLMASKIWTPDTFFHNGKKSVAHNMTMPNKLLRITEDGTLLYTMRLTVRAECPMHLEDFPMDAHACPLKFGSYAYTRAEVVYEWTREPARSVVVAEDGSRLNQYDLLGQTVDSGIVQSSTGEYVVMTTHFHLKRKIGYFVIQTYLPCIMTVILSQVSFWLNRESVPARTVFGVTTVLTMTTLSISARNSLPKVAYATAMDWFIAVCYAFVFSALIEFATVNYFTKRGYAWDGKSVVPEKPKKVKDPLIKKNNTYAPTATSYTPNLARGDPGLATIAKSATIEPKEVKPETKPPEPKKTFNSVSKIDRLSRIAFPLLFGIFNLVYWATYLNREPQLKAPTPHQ
# Gamma-aminobutyric acid receptor subunit alpha-1/alpha-2/beta-2/gamma-2, sequence (P47870 whole entry): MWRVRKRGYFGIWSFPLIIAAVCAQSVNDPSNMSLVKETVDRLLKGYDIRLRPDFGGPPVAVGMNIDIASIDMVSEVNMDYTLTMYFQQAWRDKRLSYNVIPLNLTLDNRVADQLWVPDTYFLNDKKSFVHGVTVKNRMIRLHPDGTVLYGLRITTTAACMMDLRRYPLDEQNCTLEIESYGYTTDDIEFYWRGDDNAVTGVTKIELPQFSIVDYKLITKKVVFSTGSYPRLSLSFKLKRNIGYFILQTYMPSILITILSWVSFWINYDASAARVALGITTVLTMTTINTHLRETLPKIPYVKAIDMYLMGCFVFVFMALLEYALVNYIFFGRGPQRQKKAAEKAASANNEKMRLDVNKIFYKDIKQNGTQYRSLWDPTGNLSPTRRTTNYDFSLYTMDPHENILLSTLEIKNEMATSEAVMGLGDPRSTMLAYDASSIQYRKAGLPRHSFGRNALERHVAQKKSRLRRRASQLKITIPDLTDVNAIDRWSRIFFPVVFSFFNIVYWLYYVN
# Gamma-aminobutyric acid receptor subunit alpha-1/alpha-2/beta-2/gamma-2, sequence (P18507 whole entry): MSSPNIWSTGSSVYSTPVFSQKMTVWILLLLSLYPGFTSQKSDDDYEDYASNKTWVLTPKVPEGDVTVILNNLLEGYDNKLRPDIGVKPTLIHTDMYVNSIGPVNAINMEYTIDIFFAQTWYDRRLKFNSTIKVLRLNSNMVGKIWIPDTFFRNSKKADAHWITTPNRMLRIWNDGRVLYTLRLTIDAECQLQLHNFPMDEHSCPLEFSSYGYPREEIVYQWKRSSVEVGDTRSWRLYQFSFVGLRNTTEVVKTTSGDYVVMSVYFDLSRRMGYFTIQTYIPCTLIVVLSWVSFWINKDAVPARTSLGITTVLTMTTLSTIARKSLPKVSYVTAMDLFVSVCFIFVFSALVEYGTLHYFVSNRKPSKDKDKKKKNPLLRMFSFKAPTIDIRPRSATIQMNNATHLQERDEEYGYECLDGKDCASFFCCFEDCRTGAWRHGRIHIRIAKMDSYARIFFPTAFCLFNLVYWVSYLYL
# Gamma-aminobutyric acid receptor subunit alpha-1/alpha-2/beta-2/gamma-2, sequence (P47869 whole entry): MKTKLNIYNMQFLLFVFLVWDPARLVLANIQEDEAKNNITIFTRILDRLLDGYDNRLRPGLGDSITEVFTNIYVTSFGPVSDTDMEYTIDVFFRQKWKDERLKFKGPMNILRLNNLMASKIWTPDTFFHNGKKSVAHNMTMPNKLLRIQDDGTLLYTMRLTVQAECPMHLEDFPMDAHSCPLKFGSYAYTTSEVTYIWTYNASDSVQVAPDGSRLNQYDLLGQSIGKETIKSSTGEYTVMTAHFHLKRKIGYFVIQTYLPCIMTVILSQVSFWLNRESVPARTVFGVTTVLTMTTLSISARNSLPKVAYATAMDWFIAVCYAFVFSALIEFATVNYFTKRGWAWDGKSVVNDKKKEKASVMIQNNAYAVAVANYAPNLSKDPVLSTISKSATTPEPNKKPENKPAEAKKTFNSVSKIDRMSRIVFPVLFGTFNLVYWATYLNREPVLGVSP
# Histamine H3 receptor, sequence (Q9Y5N1 whole entry): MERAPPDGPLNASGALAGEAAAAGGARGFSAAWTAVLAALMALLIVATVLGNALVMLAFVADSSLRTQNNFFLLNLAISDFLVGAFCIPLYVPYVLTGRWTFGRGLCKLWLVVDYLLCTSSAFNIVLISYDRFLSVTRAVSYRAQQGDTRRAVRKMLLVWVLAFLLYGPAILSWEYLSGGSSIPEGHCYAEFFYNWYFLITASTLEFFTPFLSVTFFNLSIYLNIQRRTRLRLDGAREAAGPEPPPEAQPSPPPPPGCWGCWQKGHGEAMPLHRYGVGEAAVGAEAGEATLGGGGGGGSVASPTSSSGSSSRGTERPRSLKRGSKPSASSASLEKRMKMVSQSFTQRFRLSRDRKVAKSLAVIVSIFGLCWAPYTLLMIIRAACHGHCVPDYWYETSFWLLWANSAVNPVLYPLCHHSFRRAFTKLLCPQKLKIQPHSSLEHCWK
smiles,measurement,setting,value
CCCCC[C@H](O)/C=C/[C@H]1[C@H](O)CC(=O)[C@@H]1CCCCCCC(=O)O [ALPROSTADIL],AC50,[1],> 10 µM
CN(C)CC/C=C1/c2ccccc2Sc2ccc(Cl)cc21 [CHLORPROTHIXENE],AC50,[2],0.003 µM
O=C(O)CN(CCN(CC(=O)O)CC(=O)O)CC(=O)O [EDETIC ACID],AC50,[3],> 30 µM
COc1ccc2c3c1O[C@H]1C[C@@H](O)C=C[C@@]31CCN(C)C2 [GALANTAMINE],AC50,[4],> 30 µM
CC[N+](CC)(CC)CCOc1cccc(OCC[N+](CC)(CC)CC)c1OCC[N+](CC)(CC)CC [GALLAMINE],AC50,[4],8.99 µM
same,AC50,[3],> 30 µM
Oc1ccccc1 [PHENOL],AC50,[5],> 30 µM
same,AC50,[2],> 30 µM
same,AC50,[6],> 30 µM
same,AC50,[7],> 30 µM
same,AC50,[8],> 30 µM
same,AC50,[9],> 30 µM
same,AC50,[10],> 30 µM
same,AC50,[11],> 30 µM
same,AC50,[12],> 30 µM
same,AC50,[13],> 30 µM
same,AC50,[14],> 30 µM
same,AC50,[15],> 30 µM
same,AC50,[3],> 30 µM
same,AC50,[16],> 30 µM
same,AC50,[17],> 30 µM
CNC(=C[N+](=O)[O-])NCCSCc1ccc(CN(C)C)o1 [RANITIDINE],AC50,[18],> 30 µM
